Experimental data as given in PubChem BioAssay AID248 (DTP/NCI, 2004).
Several values for one entry are separate records, joined by “and”; a condition that tells them apart may be missing. Equal values may be shown once. Inconclusive results and toxic doses are left out. No stated cut-off is given here; in the data, active means T/C of 150% or more; inactive means T/C below 125%.

Test system: L1210 leukemia ip in BDF1 mice, survival T/C
Test: NCI In Vivo Anticancer Drug Screen. Data for tumor model L1210 Leukemia (intraperitoneal) in B6D2F1 (BDF1) mice
Settings: endpoint: mean survival time, higher = longer survival
In short: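 Mice bearing the transplanted tumor received compound or vehicle. Survival of the treated group was divided by that of the vehicle-treated control group to give the ratio.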

[1] = dose: 100.0 mg/kg/injection, schedule: Q04DX002 (ip), vehicle: saline with Tween-80
[2] = dose: 200.0 mg/kg/injection, schedule: Q04DX002 (ip), vehicle: saline with Tween-80
[3] = dose: 400.0 mg/kg/injection, schedule: Q04DX002 (ip), vehicle: saline with Tween-80
[4] = dose: 100.0 mg/kg/injection, schedule: Q01DX009 (ip), vehicle: saline with Tween-80
[5] = dose: 200.0 mg/kg/injection, schedule: Q01DX009 (ip), vehicle: saline with Tween-80
[6] = dose: 100.0 mg/kg/injection, schedule: Q01DX001 (ip), vehicle: saline
[7] = dose: 200.0 mg/kg/injection, schedule: Q01DX001 (ip), vehicle: saline
[8] = dose: 400.0 mg/kg/injection, schedule: Q01DX001 (ip), vehicle: saline
[9] = dose: 100.0 mg/kg/injection, schedule: Q01DX001 (ip), vehicle: saline with Tween-80
[10] = dose: 100.0 mg/kg/injection, schedule: Q04DX003 (ip), vehicle: saline with Tween-80
[11] = dose: 200.0 mg/kg/injection, schedule: Q01DX001 (ip), vehicle: saline with Tween-80
[12] = dose: 200.0 mg/kg/injection, schedule: Q04DX003 (ip), vehicle: saline with Tween-80
[13] = dose: 400.0 mg/kg/injection, schedule: Q01DX001 (ip), vehicle: saline with Tween-80
[14] = dose: 100.0 mg/kg/injection, schedule: Q01DX009 (ip), vehicle: Klucel (hydroxypropylcellulose) (HPC)
[15] = dose: 200.0 mg/kg/injection, schedule: Q01DX009 (ip), vehicle: Klucel (hydroxypropylcellulose) (HPC)
[16] = dose: 400.0 mg/kg/injection, schedule: Q01DX009 (ip), vehicle: Klucel (hydroxypropylcellulose) (HPC)

Measured: T/C

CC(NC(=O)C(C)(C)C)c1ccc2c(c1)OCCO2 (centres undefined)
inactive: [1] 106 % of control | [2] 95 % of control | [3] 95 % of control

Cc1ccc(C(=O)/C=C/c2ccc(N(C)C)cc2)cc1
inactive: [4] 90 % of control | [5] 93 % of control | dose: 400.0 mg/kg/injection, schedule: Q01DX009 (ip), vehicle: saline with Tween-80 97 % of control

O=C(c1ccccc1)c1ccc(Cl)c([N+](=O)[O-])c1
inactive: dose: 50.0 mg/kg/injection, schedule: Q01DX001 (ip), vehicle: saline 103 % of control | [6] 100 % of control | [7] 91 % of control | [8] 97 % of control

O=CC(O)C(O)C(OC1OC(CO)C(O)C(O)C1O)C(O)CO (centres undefined) (tested in a mixture with another compound)
inactive: dose: 75.0 mg/kg/injection, schedule: Q01DX009 (ip), vehicle: carboxymethylcellulose (CMC) 105 % of control | [9] 94 % of control and 98 % of control | dose: 100.0 mg/kg/injection, schedule: Q01DX009 (ip), vehicle: carboxymethylcellulose (CMC) 98 % of control | [4] 94 % of control | [1] 108 % of control [middle of 4 runs] | [10] 97 % of control and 108 % of control | dose: 150.0 mg/kg/injection, schedule: Q01DX009 (ip), vehicle: carboxymethylcellulose (CMC) 105 % of control | [11] 98 % of control and 105 % of control | dose: 200.0 mg/kg/injection, schedule: Q01DX009 (ip), vehicle: carboxymethylcellulose (CMC) 105 % of control | [5] 100 % of control | [2] 97 % of control [middle of 4 runs] | [12] 91 % of control and 92 % of control | dose: 300.0 mg/kg/injection, schedule: Q01DX009 (ip), vehicle: carboxymethylcellulose (CMC) 100 % of control | [13] 93 % of control and 92 % of control | dose: 400.0 mg/kg/injection, schedule: Q01DX009 (ip), vehicle: carboxymethylcellulose (CMC) 96 % of control | [3] 96 % of control and 92 % of control and 94 % of control | dose: 400.0 mg/kg/injection, schedule: Q04DX003 (ip), vehicle: saline with Tween-80 101 % of control and 92 % of control

CCCCCCCCCC(=O)OCCN1CCN(CCCN2c3ccccc3Sc3ccc(C(F)(F)F)cc32)CC1
inactive: dose: 1.56 mg/kg/injection, schedule: Q01DX009 (ip), vehicle: alcohol 107 % of control | dose: 25.0 mg/kg/injection, schedule: Q04DX003 (ip), vehicle: saline with Tween-80 106 % of control

CP(=S)(c1ccccc1)P(C)(=S)c1ccccc1 (centres undefined)
inactive: [14] 99 % of control | dose: 100.0 mg/kg/injection, schedule: Q04DX003 (ip), vehicle: Klucel (hydroxypropylcellulose) (HPC) 98 % of control | [15] 103 % of control | dose: 200.0 mg/kg/injection, schedule: Q04DX003 (ip), vehicle: Klucel (hydroxypropylcellulose) (HPC) 101 % of control | [16] 94 % of control | dose: 400.0 mg/kg/injection, schedule: Q04DX003 (ip), vehicle: Klucel (hydroxypropylcellulose) (HPC) 98 % of control

O=C(O)C(=S)Cc1cn[nH]n1
inactive: [6] 103 % of control | [8] 100 % of control

NNC(=O)C(Cc1cnc[nH]1)NC(=O)OCc1ccccc1 (centres undefined)
inactive: dose: 100.0 mg/kg/injection, schedule: Q04DX002 (ip), vehicle: Klucel (hydroxypropylcellulose) (HPC) 100 % of control | dose: 200.0 mg/kg/injection, schedule: Q04DX002 (ip), vehicle: Klucel (hydroxypropylcellulose) (HPC) 90 % of control | dose: 400.0 mg/kg/injection, schedule: Q04DX002 (ip), vehicle: Klucel (hydroxypropylcellulose) (HPC) 107 % of control

O=C(Oc1c(Cl)cc([N+](=O)[O-])cc1[N+](=O)[O-])Sc1ccccc1
inactive: [1] 103 % of control | [2] 100 % of control | [3] 100 % of control

O=C(O)c1cc(C(=O)O)cc([N+](=O)[O-])c1
inactive: dose: 50.0 mg/kg/injection, schedule: Q01DX009 (ip), vehicle: saline with Tween-80 93 % of control | [4] 91 % of control | [10] 95 % of control | [12] 95 % of control

CN(C)OC(=O)Nc1cccc([N+](=O)[O-])c1
inactive: dose: 100.0 mg/kg/injection, schedule: Q04DX002 (ip), vehicle: other 87 % of control | dose: 200.0 mg/kg/injection, schedule: Q04DX002 (ip), vehicle: other 102 % of control | dose: 400.0 mg/kg/injection, schedule: Q04DX002 (ip), vehicle: other 117 % of control

N#CC(C#N)=Cc1cccc(OCc2ccccc2)c1
inactive: [14] 100 % of control | [15] 91 % of control | [16] 91 % of control

Cc1cc(NC(=O)/C=C/c2ccc([N+](=O)[O-])cc2Cl)ccc1S(=O)(=O)F
inactive: [9] 92 % of control | [11] 93 % of control | [13] 92 % of control

C/C(=N/NC(N)=O)c1cccc([N+](=O)[O-])c1
inactive: [6] 89 % of control | [7] 89 % of control | [8] 93 % of control

CCCCCCCCCCCCCCCC(=O)Nc1ccc(Cl)cc1
inactive: [1] 94 % of control | [2] 94 % of control | [3] 97 % of control

OC1C(OCc2ccccc2)OC(COCc2ccccc2)C(OC2OC(COCc3ccccc3)C(OCc3ccccc3)C(OCc3ccccc3)C2OCc2ccccc2)C1OCc1ccccc1 (centres undefined)
inactive: dose: 200.0 mg/kg/injection, schedule: Q01DX009 (ip), vehicle: alcohol 94 % of control | dose: 400.0 mg/kg/injection, schedule: Q01DX009 (ip), vehicle: alcohol 86 % of control

COc1cccc(/C=N/N=C(N)N)c1
inactive: dose: 15.0 mg/kg/injection, schedule: Q01DX Z (ip), vehicle: saline 94 % of control | dose: 30.0 mg/kg/injection, schedule: Q01DX Z (ip), vehicle: saline 97 % of control | dose: 30.0 mg/kg/injection, schedule: Q01DX Z (oral), vehicle: saline 104 % of control | dose: 60.0 mg/kg/injection, schedule: Q01DX Z (ip), vehicle: saline 92 % of control | dose: 60.0 mg/kg/injection, schedule: Q01DX Z (oral), vehicle: saline 104 % of control | dose: 120.0 mg/kg/injection, schedule: Q01DX Z (oral), vehicle: saline 101 % of control

CN1CCC(O)(C#N)CC1
inactive: dose: 7.5 mg/kg/injection, schedule: Q01DX001 (ip), vehicle: saline 101 % of control | dose: 15.0 mg/kg/injection, schedule: Q01DX001 (ip), vehicle: saline 106 % of control

ClCCN(CCCl)CCn1cnc2c(SCc3ccccc3)ncnc21
inactive: dose: 13.0 mg/kg/injection, schedule: Q01DX Z (ip), vehicle: carboxymethylcellulose (CMC) 103 % of control | dose: 20.0 mg/kg/injection, schedule: Q01DX Z (ip), vehicle: carboxymethylcellulose (CMC) 108 % of control | dose: 30.0 mg/kg/injection, schedule: Q01DX Z (ip), vehicle: carboxymethylcellulose (CMC) 105 % of control | dose: 45.0 mg/kg/injection, schedule: Q01DX Z (ip), vehicle: carboxymethylcellulose (CMC) 110 % of control

NNc1c2ccccc2nc2ccccc12
inactive: dose: 0.5 mg/kg/injection, schedule: Q04DX003 (ip), vehicle: Klucel (hydroxypropylcellulose) (HPC) 103 % of control | dose: 1.0 mg/kg/injection, schedule: Q04DX003 (ip), vehicle: Klucel (hydroxypropylcellulose) (HPC) 100 % of control | dose: 2.0 mg/kg/injection, schedule: Q04DX003 (ip), vehicle: Klucel (hydroxypropylcellulose) (HPC) 95 % of control
